Biological target: T1, Estrogen receptor (Homo sapiens) (UniProt P03372)
T1 sequence (whole entry): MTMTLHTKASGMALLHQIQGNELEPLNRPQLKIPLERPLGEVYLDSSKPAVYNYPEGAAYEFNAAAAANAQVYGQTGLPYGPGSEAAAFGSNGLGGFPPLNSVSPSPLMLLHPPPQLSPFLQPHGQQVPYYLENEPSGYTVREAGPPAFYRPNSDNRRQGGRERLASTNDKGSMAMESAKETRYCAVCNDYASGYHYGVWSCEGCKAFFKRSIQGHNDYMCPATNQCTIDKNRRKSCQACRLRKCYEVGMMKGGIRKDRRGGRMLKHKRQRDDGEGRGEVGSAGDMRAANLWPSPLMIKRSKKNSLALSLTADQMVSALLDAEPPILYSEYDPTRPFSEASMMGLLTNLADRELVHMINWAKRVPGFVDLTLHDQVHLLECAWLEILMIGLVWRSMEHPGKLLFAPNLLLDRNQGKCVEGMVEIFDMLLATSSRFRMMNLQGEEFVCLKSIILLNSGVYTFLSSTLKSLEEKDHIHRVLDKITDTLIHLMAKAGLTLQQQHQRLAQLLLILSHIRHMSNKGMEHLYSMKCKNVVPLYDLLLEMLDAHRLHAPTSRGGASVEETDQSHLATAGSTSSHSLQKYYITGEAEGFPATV
Assay: Binding affinity for human estrogen receptor alpha after 3 hr at 0C

| Compound | Activity [%] |
| --- | --- |
| O=[N+]([O-])c1cc(CO)cc([N+](=O)[O-])c1-c1ccc(O)cc1 | 24 |
| OCc1cc(Br)c(-c2ccc(O)cc2)c(Br)c1 | 425 |

Further lines, results first:

| Activity [%] | Compound |
| --- | --- |
| 104 | OCc1cc(Cl)c(-c2ccc(O)cc2)c(Cl)c1 |
| 33 | OCc1ccc(-c2ccc(O)cc2)c(C(F)(F)F)c1 |

Biological target: T1, Estrogen receptor (Homo sapiens)
Assay: Receptor binding affinity (RBA) to human recombinant estrogen receptor alpha (REH) after 24 hours at 0 degree Centigrade

| Compound | Activity [%] |
| --- | --- |
| O=[N+]([O-])c1cc(CO)cc([N+](=O)[O-])c1-c1ccc(O)cc1 | 5 |
| Cc1cc(-c2ccc(CO)cc2)cc(C)c1O | 0 |
| Nc1cc(CO)cc([N+](=O)[O-])c1-c1ccc(O)cc1 | 0.03 |
| OCc1cc(Cl)c(-c2ccc(O)c(Cc3ccccc3)c2)c(Cl)c1 | 0.07 |
| Nc1cc(CO)cc(Br)c1-c1ccc(O)cc1 | 0.03 |
| OCc1cc(F)c(-c2ccc(O)cc2)c(F)c1 | 0.93 |
| CSc1cc(CO)cc(Br)c1-c1ccc(O)cc1 | 4.5 |
| COc1cc(CO)cc(OC)c1-c1ccc(O)cc1 | 0.24 |
| CN(C)C#Cc1cc(CO)cc(Br)c1-c1ccc(O)cc1 | 0.2 |
| Cc1cc(O)cc(C)c1-c1ccc(CO)cc1 | 0.06 |
| OCc1cc(Cl)c(-c2ccc(O)cc2Cl)c(Cl)c1 | 21 |
| O=[N+]([O-])c1cc(CO)cc(Br)c1-c1ccc(O)cc1 | 34 |
| OCc1c(Cl)c(Cl)c(-c2ccc(O)cc2)c(Cl)c1Cl | 5.4 |
| OCc1ccc(-c2c(Cl)c(Cl)c(O)c(Cl)c2Cl)cc1 | 0 |
| OCc1cc(Br)c(-c2ccc(O)cc2)c(-n2cccc2)c1 | 2 |
| Cc1cc(CO)cc(C)c1-c1ccc(O)cc1 | 0.8 |
| OCc1ccc(-c2cc(Br)c(O)c(Br)c2)cc1 | 0 |
| OCc1cc(Br)c(-c2ccc(O)cc2)c(I)c1 | 41 |

The next lines start with the values.

| Activity [%] | Compound |
| --- | --- |
| 50 | OCc1cc(Cl)c(-c2ccc(O)cc2)c(C(F)(F)F)c1 |
| 0.03 | OCc1ccc(-c2ccc(O)cc2Cl)cc1 |
| 2.5 | COc1cc(CO)cc(Cl)c1-c1ccc(O)cc1 |
| 34 | OCc1cc(Cl)c(-c2ccc(O)cc2)c(Cl)c1 |
| 1 | OCc1cc(Cl)c(-c2ccc(O)cc2)c(-c2ccc(O)cc2)c1 |
| 1 | OCc1ccc(-c2ccc(O)cc2)c(-c2ccc(O)cc2)c1 |
| 2 | OCc1ccc(-c2ccc(O)cc2)c(Cl)c1 |
| 22 | CC(C)c1cc(CO)cc(Cl)c1-c1ccc(O)cc1 |
| 0.4 | OCc1ccc(-c2c(Cl)cc(O)cc2Cl)cc1 |
| 9.5 | OCc1ccc(-c2ccc(O)cc2)c(C(F)(F)F)c1 |

Biological target: T1, Estrogen receptor (Homo sapiens)
Assay: Binding affinity for human estrogen receptor alpha after 24 hr r at 0C

| Compound | Activity [%] |
| --- | --- |
| OCc1cc(Br)c(-c2ccc(O)cc2)c(Br)c1 | 106 |

Source: ChEMBL document CHEMBL1134802, “Biphenyls as surrogates of the steroidal backbone. Part 1: synthesis and estrogen receptor affinity of an original series of polysubstituted biphenyls” (Bioorg Med Chem Lett, 2001)
